From paper PMC6632198, “In planta high levels of hydrolysable tannins inhibit peroxidase mediated anthocyanin degradation and maintain abaxially red leaves of Excoecaria Cochinchinensis” (BMC Plant Biology, 2019)

Target: T1, ADE/POD (anthocyanin degradation enzyme/peroxidase), purified Osmanthus POD
T1 construct: major in-gel activity band about 110 kDa on semi-native PAGE
Assay: guaiacol oxidation, absorbance at […] nm
Assay type: biochemical, Osmanthus fragrans
Details: guaiacol and H2O2 as substrates, 50 mM phosphate buffer pH 7.0; partially purified enzyme

In the case of O=C(O)c1cc(O)c(O)c(O)c1 [gallic acid], the IC50 is reported as 35.55 μM GAE.
